The results in this text go back to ChEMBL document CHEMBL3046662, “Hypoglycemic and insulin mimetic impact of catechin isolated from Cassia fistula: a substantiate in silico approach through docking analysis” (Med Chem Res, 2012).

Active and inactive are the calls of the source. No cut-off for these calls is given here.

For the experiment, the system named is Rattus norvegicus. Description: Hypoglycemic activity in Rattus norvegicus albino Wistar (rat) streptozotocin-induced diabetic model assessed as reduction of plasma glucose level at 20 mg/kg, po qd for 60 days measured up to 180 min by oral glucose tolerance test. Details: dose 20 mg/kg. The experiment is classed as functional, organism-based.

In the case of `Oc1cc(O)c2c(c1)OC(c1ccc(O)c(O)c1)C(O)C2` (stereo unspecified), the result was Active.
